The results in this text go back to paper PMC5472279, “Genetic, structural, and chemical insights into the dual function of GRASP55 in germ cell Golgi remodeling and JAM-C polarized localization during spermatogenesis” (PLoS Genetics, 2017).

The target in test [1] is T1, GST-GRASP55 FL (Mus musculus, UniProt Q99JX3).
T1 construct: gene Gorasp2; full-length aa 2-451, N-terminal GST tag, E. coli BL21(DE3)
Description: HTRF competition with biotinylated JAM-B C-terminal 19-mer peptide. It counts as binding. Background: Time-resolved FRET reads energy transfer from a long-lived donor to a nearby acceptor.

For test [2], the target named is T2, His-GRASP55 PDZ12 (Mus musculus, UniProt Q99JX3).
T2 construct: gene Gorasp2; tandem PDZ domains PDZ12 aa 2-208, N-terminal 6His tag, E. coli BL21(DE3)
Description: differential scanning fluorimetry (SYPRO orange). Format: binding. Conditions: 4 μM protein, 50 μM Graspin, PBS, 2.5% DMSO. From the text:
differential scanning fluorimetry (SYPRO orange) on His-GRASP55 PDZ12 | […], but not the JAM-C peptide, decreased the GRASP55 melting temperature

As usually defined, the IC50 is the point on the concentration scale where inhibition reaches its midpoint. Read a high IC50 as weaker potency.

For the molecule `CCCCCn1c(SCCCn2c(Br)nc3c2c(=O)[nH]c(=O)n3C)nc2c1c(=O)[nH]c(=O)n2C` [Graspin], in test [1], the IC50 was determined as 8.4 µM. Also, the dTm result in test [2] is “Graspin, but not the JAM-C peptide, decreased the GRASP55 melting temperature”.
